One data set has as its system PNN^+HEK cells. The experiment in a line: Removal of PNNs in vitro in PNN+HEK cell model (WFA staining). The format is cell-based, human. The text has this:
A previously developed human embryonic kidney 293T (HEK) cell model, engineered to express the essential ECM components (hyaluronan synthase 3 (HAS-3) and HAPLN-1) required to induce the formation of a pericellular PNN-like structure (PNN^+HEK cells) (Kwok et al., 2010), was used to investigate the efficacy of PNNi in removing PNNs in vitro (FIG. 9A-I).

In data set [1] the test system is locomotor function of intact rats. Conditions: female, Lister Hooded, rat, in vivo, 10 days. An excerpt: Firstly, the inventors questioned whether PNN removal throughout the CNS would affect normal sensation and motor functions. To investigate this, adult female Lister Hooded rats (n=11) were given ten days of oral PNNi treatment and subjected to routine behavioural testing.

The test system of data set [2] is perineuronal nets (PNNs) in the ventral horn. The experiment in a line: Chronic PNNi treatment, immunohistochemistry of PNNs in the ventral horn 12 weeks post-injury. The format is in vivo, rat. As to conditions: T4-6 sections. The protocol:
FIG. 15. Chronic PNNi treatment preferentially reduces expression of perineuronal nets (PNNs), labelled by key PNN components, in the ventral horn (VH). Rat spinal cord sections (T4-6) obtained at 12 weeks post-injury were stained and intensity was analysed in the VH. […] A transcardial perfusion (Gage et al., 2012) was then performed using sodium phosphate buffer (PB; 0.12 M sodium phosphate monobasic; 0.1 M NaOH; pH 7.4) followed by 4% paraformaldehyde (PFA; in PB; pH 7.4) for tissue fixation. The brain and spinal cord were dissected out, post-fixed in PFA (4%; 4° C.) overnight and cryoprotected in 30% sucrose solution (30% v/w sucrose in PB; 4° C.) until tissue saturation. The left brain hemisphere and appropriate spinal cord segments were excised and frozen in optimum temperature medium (OCT; Leica FSC 22 Frozen Section Media; Leica Biosystems) before storage at -80° C. until sectioning. […] Total number of neurones and the number of neurones surrounded by PNNs were quantified by two independent researchers, blinded to the study. Results were analysed with one-way ANOVA for statistical significance. […] Rat spinal cord sections (T4-6) obtained at 12 weeks post-injury were stained and intensity was analysed in the VH.

In the next data set the test system is spinal cord injury. The experiment in a line: 8 weeks PNNi with sustained rehabilitation after spinal cord injury, hindlimb motor recovery. The format is in vivo, rat. Conditions: terminated 2-3 weeks before end, continued rehabilitative training. An excerpt: FIG. […]): Limiting PNNi administration alongside sustained rehabilitation allows further hindlimb (HL) motor recovery. […] Bar graph showing the percentage of animals that were able to achieve forelimb-hindlimb (FL-HL) coordination at 9 weeks post-injury (WPI) at the end of PNNi administration, 10 and 12 WPI (B). […] (For groups, n=10 and 9 for 8 week PNNi and 8 week PNNi+T, respectively. Statistics, A, C-E: two-way mixed factorial ANOVA; significance levels: *p<0.05 **p<0.01 and ***p<0.001. A, C, D: Error bars are ±SEM.) Training was comprised of distributed practice quadrupedal interval treadmill training to provide task-specific rehabilitation. The first session commenced 7 days post injury (DPI) following locomotor behavioural tests described below. Daily training consisted of 10 minutes on the treadmill, followed by a 10 minute break before a final 10 minute session on the treadmill. Rats were trained five times a week at the maximal speed that they could maintain consecutive stepping for each 10-minute session on the treadmill. In order to enhance plasticity for effective functional recovery, we administer PNNi for 8 weeks in combination with 11 weeks of rehabilitation. Limiting PNNi administration alongside sustained rehabilitation allows further hindlimb (HL) motor but not sensory recovery (FIG. 12). […]

A further data set deals with mice. As to conditions: 6.8-12.8 g/kg in mice continuously for 6 months.

`Cc1cc(=O)oc2cc(O)ccc12` [PNNi, 4-methylumbelliferone] registered a WFA-positive staining removed in the data set with PNN^+HEK cells (two days of treatment, 0.5 mM or 1.0 mM) of 86.4±4.47%. In the data set with PNN^+HEK cells (within three days post-treatment), the “staining intensity recovered, of baseline lectin binding” value was 43.6±14.6%. Besides, in data set [1], the FL correct steps is given as 94.4±0.56%, the FL missed steps is recorded as 1.13±0.24%, the FL slipped steps is 4.35±0.54% and the “HL correct stepping on the horizontal ladder” value was “approximately 92.7±0.82%”. Moreover, in data set [1], the “HL misses on the horizontal ladder” value came to 1.92±0.41% and the “HL slips on the horizontal ladder” value is 5.43±0.70%. The “number of PNNs labelled by ACAN and WFA in the ventral horn” value in data set [2] is listed as “partially decreases number of PNNs”. Also, the “hindlimb (HL) motor recovery” value with spinal cord injury was “a further HL improvement was observed”. Also, the “lethality and adverse signs” value in the data set with mice is reported as “did not show any lethality”.

The values above are taken from US20220380331A1, “TREATMENT OF CONDITIONS OF THE NERVOUS SYSTEM” (priority 2019, published 2022).
